Measurements taken from publication PMC9240354, “Pharmacokinetics, Pharmacodynamics and Antiviral Efficacy of the MEK Inhibitor Zapnometinib in Animal Models and in Humans” (Frontiers in Pharmacology, 2022).
In brackets after ≈: the same amount, converted by molar mass.

Columns and labels:
MEK [1] = assay: MEK inhibition in PBMCs of treated beagle dogs (pERK/ERK, Wes); type: in vivo; conditions: formulation 3, plasma concentrations until Cmax vs ERK phosphorylation in PBMCs
Experimental: PBMCs were isolated from the same blood samples (30 µl mouse blood, 50 µl hamster blood, or 1 ml dog blood) used for pharmacokinetic analysis. After plasma separation as described in the section above (Blood sampling and preparation of plasma samples), the remaining red blood cells were lysed by adding 1 volume of red blood cell (RBC) lysis buffer (Thermo Fisher Scientific, Waltham, MA, United States) (300 µl for mice, 500 µl for hamster, and 10 ml for dogs). The samples were incubated for 15 min at RT and centrifuged at 500 x g for 5 min (RT). The supernatant was removed completely, and the pellet was washed twice with PBS. The PBMC cell pellets were store at −80°C until further analysis. […]
The pharmacodynamic assessment was performed using the Wes™ (Simple Western™) system which uses capillary electrophoresis to separate, identify and quantify proteins of interest. A chemiluminescence signal for each identified protein is detected and the area under the peak is calculated, which is then used for quantification. The 0.1x Sample Buffer, 400 mM dithiothreitol (DTT) solution, 5x Fluorescence Master Mix, and the Biotinylated Ladder (ProteinSimple®, Abingdon, Oxford, United Kingdom) were prepared according to manufacturer’s instructions. […] The anti-rabbit secondary antibody (Cat# DM-001) was also purchased from ProteinSimple® and was ready to use. […]

MEK [2] = assay: MEK inhibition in PBMCs of treated Syrian hamsters (pERK/ERK, Wes); type: in vivo; conditions: hamster PBMCs
Experimental: PBMCs were isolated from the same blood samples (30 µl mouse blood, 50 µl hamster blood, or 1 ml dog blood) used for pharmacokinetic analysis. After plasma separation as described in the section above (Blood sampling and preparation of plasma samples), the remaining red blood cells were lysed by adding 1 volume of red blood cell (RBC) lysis buffer (Thermo Fisher Scientific, Waltham, MA, United States) (300 µl for mice, 500 µl for hamster, and 10 ml for dogs). The samples were incubated for 15 min at RT and centrifuged at 500 x g for 5 min (RT). The supernatant was removed completely, and the pellet was washed twice with PBS. The PBMC cell pellets were store at −80°C until further analysis. PBMCs of 8 ml human blood were isolated using CPT^TM tubes. After a 20-min centrifugation at 1,650 x g at room temperature, the plasma was collected for PK analysis as described in the section above (Blood sampling and preparation of plasma samples). […]
The pharmacodynamic assessment was performed using the Wes™ (Simple Western™) system which uses capillary electrophoresis to separate, identify and quantify proteins of interest. A chemiluminescence signal for each identified protein is detected and the area under the peak is calculated, which is then used for quantification. The 0.1x Sample Buffer, 400 mM dithiothreitol (DTT) solution, 5x Fluorescence Master Mix, and the Biotinylated Ladder (ProteinSimple®, Abingdon, Oxford, United Kingdom) were prepared according to manufacturer’s instructions. […] Then the 5x Fluorescence Master Mix in DTT (ProteinSimple®) was added, and the samples were denatured for 5 min at 95°C, loaded onto the assay plate and analyzed using specific antibodies. […] The anti-rabbit secondary antibody (Cat# DM-001) was also purchased from ProteinSimple® and was ready to use. Data were analyzed with Compass software for simple western (ProteinSimple®). Using the ratio of pERK to ERK of each sample compared to control (pre-dose), the level of ERK phosphorylation was calculated and then converted into the percentage level of MEK inhibition.

MEK [3] = assay: MEK inhibition in PBMCs, summary regardless of species; type: in vivo, mice, hamsters, dogs, human
Experimental: The pharmacodynamic assessment was performed using the Wes™ (Simple Western™) system which uses capillary electrophoresis to separate, identify and quantify proteins of interest. A chemiluminescence signal for each identified protein is detected and the area under the peak is calculated, which is then used for quantification. The 0.1x Sample Buffer, 400 mM dithiothreitol (DTT) solution, 5x Fluorescence Master Mix, and the Biotinylated Ladder (ProteinSimple®, Abingdon, Oxford, United Kingdom) were prepared according to manufacturer’s instructions. For all species, PBMCs were lysed in 1x radioimmunoprecipitation assay (RIPA) buffer (containing 0.24% (w/v) tris base (Sigma-Aldrich, St. Louis, MO, United States), 0.88% (w/v) NaCl (Carl Roth GmbH, Karlsruhe, Germany), 0.2% (v/v) 500 mM EDTA (Sigma-Aldrich), 1% (v/v) Triton X-100 (Sigma-Aldrich), 0.5% (w/v) sodium deoxycholate (Sigma-Aldrich), 0.1% (w/v) sodium dodecyl sulfate (SDS) (Carl Roth), 10% (v/v) glycerol (Carl Roth), 0.05% phenylmethyl sulfonyl fluoride (PMSF) (Carl Roth), 0.01% Benzonase® Nuclease (Sigma-Aldrich), protease inhibitor cocktail (Roche, Basel, Switzerland), and phosphatase inhibitor cocktail (Roche) in H2O), further diluted with 0.1x Sample Buffer (ProteinSimple®, Abingdon, Oxford, United Kingdom) to adjust the protein concentration to 1 μg/μl. Then the 5x Fluorescence Master Mix in DTT (ProteinSimple®) was added, and the samples were denatured for 5 min at 95°C, loaded onto the assay plate and analyzed using specific antibodies. […] The anti-rabbit secondary antibody (Cat# DM-001) was also purchased from ProteinSimple® and was ready to use. Data were analyzed with Compass software for simple western (ProteinSimple®). Using the ratio of pERK to ERK of each sample compared to control (pre-dose), the level of ERK phosphorylation was calculated and then converted into the percentage level of MEK inhibition.

in vivo = conditions: C57BL/6, mouse
clinical = conditions: both, human, in vivo; for AUC(0-t): healthy volunteers, n = 8
plasma binding = conditions: stated in discussion, no data shown

## O=C(O)c1ccc(F)c(F)c1Nc1ccc(I)cc1Cl [zapnometinib, 2-(2-Chloro-4-Iodophenylamino)-N-3,4-Difluoro benzoic acid]
MEK [1]
  IC50 (plasma concentration reducing ERK phosphorylation by 50% compared to pre-dose): 12.5 µg/mL (≈ 30.5 µM)
MEK [2]; 15 mg/kg BID
  MEK inhibition 12 h after the first treatment: 25 ± 15%
MEK [2]; 15 mg/kg BID, 15 mg/kg
  MEK inhibition at 24 h: 43 ± 8%
MEK [2]; 60 mg/kg OD
  MEK inhibition at 24 h: 55 ± 26%
MEK [3]; across all species
  concentration to inhibit 50% of PBMC MEK activity: approximately 10 μg/ml
MEK [3]; regardless of species
  MEK inhibition in PBMCs, maximum observed: up to 80%
MEK [3]; regardless of species, almost all zapnometinib eliminated from plasma
  MEK inhibition maintained 24 h after dosing: up to 50%
In vivo
  half-life: 8 h
In vivo; po, 25 mg/kg
  AUC: 1390 µg·h/mL
  Cmax: 69000 ± 24000 ng/mL
In vivo; po, 25 mg/kg, Tmax,1, mice, 25 mg/kg p.o., after first treatment
  Tmax: 2 h
In vivo; po, 25 mg/kg, Tmax,2, mice, 25 mg/kg p.o. twice, second dose at 8 h
  Tmax: 10 h
clinical
  half-life: 19 h
clinical; po, 100 mg
  Cmax: 9000 ± 2000 ng/mL
  Tmax: 2 h
  half-life: 19.6 ± 5.3 h
clinical; po, 100 mg, AUC0-t, single oral dose 100 mg
  AUC(0-t): 115 ± 10 µg·h/mL
clinical; po, 100 mg, AUC0–24 h, single oral dose 100 mg
  AUC(0-t): 84 ± 9 µg·h/mL
clinical; po, 300 mg
  Cmax: 13000 ± 4000 ng/mL
  Tmax: 4 h
  half-life: 19.8 ± 5.8 h
clinical; po, 300 mg, AUC0-t, single oral dose 300 mg
  AUC(0-t): 241 ± 18 µg·h/mL
clinical; po, 300 mg, AUC0–24 h, single oral dose 300 mg
  AUC(0-t): 157 ± 16 µg·h/mL
clinical; po, 600 mg
  Cmax: 35000 ± 7000 ng/mL
  Tmax: 4 h
  half-life: 21.9 ± 6.8 h
clinical; po, 600 mg, AUC0-t, single oral dose 600 mg
  AUC(0-t): 617 ± 51 µg·h/mL
clinical; po, 600 mg, AUC0–24 h, single oral dose 600 mg
  AUC(0-t): 411 ± 44 µg·h/mL
clinical; po, 900 mg
  Cmax: 46000 ± 16000 ng/mL
  Tmax: 4 h
  half-life: 23.7 ± 8.2 h
clinical; po, 900 mg, AUC0-t, single oral dose 900 mg
  AUC(0-t): 1000 µg·h/mL
clinical; po, 900 mg, AUC0–24 h, single oral dose 900 mg
  AUC(0-t): 629 ± 83 µg·h/mL
Plasma binding
  plasma binding: high plasma binding
